Several values for one entry are separate records, joined by “and”; a condition that tells them apart may be missing. Equal values may be shown once.
What was measured:
Format in all cases: cell-based
[1] = tested on: SARS-CoV-2 variant Delta (B.1.617.2); assay: microbe, parasite or virus in culture; conditions: for EC50: Severe acute respiratory syndrome coronavirus 2, 24 h, read-out: EC50 B.1.617.2 (293T-AT)
[2] = tested on: SARS-CoV-2 variant Omicron (BA.5); assay: microbe, parasite or virus in culture; conditions: for EC50: Severe acute respiratory syndrome coronavirus 2, 24 h, read-out: EC50 BA.5 (293T-AT)
[3] = tested on: SARS-CoV-2 variant Omicron (BA.5)

SMILES | B.1.617.2, HEK293T-AT: inhibition at the concentration (Fig2B) [1] | EC50 [1] [nM] | EC50 [2] [nM] | BA.5, HEK293T-AT: inhibition at the concentration (Fig2B) [2] | inhibitory effect against SARS-CoV-2 BA.5 in HEK293T-AT cells [2] | inhibitory effect against SARS-CoV-2 BA.5 in Vero E6 cells [3]
C/C=C(/C)C(=O)OC(C)(C)[C@@H]1Cc2c(ccc3ccc(=O)oc23)O1 [Columbianadin, columbianadin] | 99.1 and 99.3 | < 80 | < 80 | – | – | –
O=C(CC(=O)c1ccccc1)c1ccccc1 [DBM, dibenzoylmethane] | – | 20800 | 6630 | 97.4 | demonstrated efficacy | but not in Vero E6 cells
CCC(=O)O[C@H]1[C@H](O[C@@H]2[C@@H](C)[C@H](O[C@H]3C[C@@](C)(OC)[C@@H](O)[C@H](C)O3)[C@@H](C)C(=O)O[C@H](CC)[C@@](C)(O)[C@H](O)[C@@H](C)C(=O)[C@H](C)C[C@@]2(C)O)O[C@H](C)C[C@@H]1N(C)C [Erythromycin estolate, erythromycin estolate, reference compound] | 98.9 and 99.6 and 99.2 | < 80 | < 80 | – | – | –
CC1=C[C@]23C(=O)[C@@H](C=C(COC(=O)c4ccccc4)[C@@H](O)[C@]2(O)[C@H]1OC(=O)c1ccccc1)[C@H]1[C@@H](C[C@H]3C)C1(C)C [Ingenol 3,20-dibenzoate, ingenol 3,20-dibenzoate] | 81.2 | < 80 | < 80 | – | – | –
Cc1c([C@H](C)[C@@H]2NC[C@@H](C)C[C@H]2O)ccc2c1C[C@H]1[C@H]2CC=C2C[C@@H](O)CC[C@@]21C [Veratramine, veratramine] | 99.1 and 99.7 and 99.9 | < 80 | < 80 | 81.3 | – | –
